Results as given in the Deep4Chem optical property database.

Test: solvent given as SMILES

Compound: CCCCCCN1C(=O)c2cccc3c(-c4ccc(-c5cc(-c6ccccc6)nn5-c5ccccc5)s4)ccc(c23)C1=O
- emission maximum (in ClCCl): 517 nm

Compound: CC(C)[Si](C#Cc1ccc2c(C#C[Si](C(C)C)(C(C)C)C(C)C)cc3c4cc(C#C[Si](C(C)C)(C(C)C)C(C)C)ccc4c(C#C[Si](C(C)C)(C(C)C)C(C)C)cc3c2c1)(C(C)C)C(C)C
- emission maximum (in ClCCl): 408 nm

Compound: COc1ccc(-c2cc3c(s2)=CC2=C(C(F)(F)F)c4cc5sc(-c6ccc(OC)cc6)cc5n4[B-](F)(F)[N+]=32)cc1
- emission maximum (in C1CCOC1): 754 nm
- emission maximum (in ClC(Cl)Cl): 754 nm

Compound: CC1CC=C(c2ccc(-c3ccc(C#N)s3)s2)CC1 (configuration not stated)
- emission maximum (in C1CCOC1): 443 nm
- emission maximum (in CC#N): 448 nm
- emission maximum (in CCCCCC): 427 nm
- emission maximum (in CCO): 443 nm
- emission maximum (in OCCOCCO): 451 nm
- emission maximum (in c1ccncc1): 452 nm

Compound: COCCOCCOCCOCC(COCCOCCOCCOC)Oc1cc(/C=C/c2ccc(C=C(C#N)C#N)cc2)c(OC(COCCOCCOCCOC)COCCOCCOCCOC)cc1/C=C/c1ccc(C=C(C#N)C#N)cc1
- emission maximum (in ClCCl): 596 nm

Compound: C[Si]1(C)c2ccc(C#Cc3ccccc3)cc2C=Cc2cc(C#Cc3ccccc3)ccc21
- emission maximum (in ClCCl): 375 nm

Compound: CC(C)c1cccc(C(C)C)c1-n1c(=O)c2cc3nc(-c4ccccc4)c4cc5c(=O)n(-c6c(C(C)C)cccc6C(C)C)c(=O)c6cc7nc(-c8ccccc8)c8cc(c1=O)c2c1c3c4c(c65)c7c81
- emission maximum (in ClC(Cl)Cl): 502 nm

Compound: COC(=O)CC1(C(=O)O)Oc2c(c(C(C)=O)c3c(c2C(C)=O)OCO3)O1
- emission maximum (in CC#N): 547 nm

Compound: CN(C)c1ccc(/C=C/c2cc[n+](CCCCCCCCCCCC[n+]3ccc(/C=C/c4ccc(N(C)C)cc4)cc3)cc2)cc1
- emission maximum (in CC1COC(=O)O1): 602 nm
- emission maximum (in CC#N): 602 nm
- emission maximum (in CC(C)=O): 602 nm
- emission maximum (in CC(C)O): 590 nm
- emission maximum (in CCO): 593 nm
- emission maximum (in CN(C)C=O): 602 nm
- emission maximum (in CO): 597 nm
- emission maximum (in CS(C)=O): 607 nm
- emission maximum (in ClC(Cl)Cl): 580 nm
- emission maximum (in O): 597 nm
- emission maximum (in c1ccncc1): 598 nm

Compound: COc1ccc(-c2nc(-c3ccccc3OC)[nH]c2-c2ccc(OC)cc2)cc1
- emission maximum (in CO): 392 nm

Compound: c1ccc(N(c2ccccc2)c2ccc(-c3ccc(-c4ccc(-c5ccc(-c6ccc(N(c7ccccc7)c7ccccc7)cc6)s5)c5nsnc45)s3)cc2)cc1
- emission maximum (in ClC(Cl)Cl): 690 nm

Compound: CCCN1c2ccccc2Sc2cc(/C=C\c3cc(=O)oc4cc(C)c(Cl)cc34)ccc21
- emission maximum (in ClC(Cl)Cl): 648 nm

Compound: Fc1ccc(C#Cc2nc(C#Cc3ccc(F)cc3)c(C#Cc3ccc(F)cc3)c(C#Cc3ccc(F)cc3)c2C#Cc2ccc(F)cc2)cc1
- emission maximum (in ClCCl): 436 nm

Compound: COC(=O)c1cc(=O)n(C)c2cc(-c3cc(OC)c(OC)c(OC)c3)sc12
- emission maximum (in CC#N): 495 nm
- emission maximum (in ClCCl): 485 nm

Compound: c1cncc(-c2ccc(-c3c4ccccc4c(-c4ccc(-c5cccnc5)cc4)c4cc(-c5cccnc5)ccc34)cc2)c1
- emission maximum (in ClCCl): 434 nm

Compound: BrC1=CN2C[n+]3cc(Br)cc(Br)c3N=C2C(Br)=C1
- emission maximum (in CS(C)=O): 494 nm

Compound: N#Cc1c(N2CCCCC2)cc(-c2cccs2)c2c1-c1cccc3cccc-2c13
- emission maximum (in O): 555 nm

Compound: CCCc1ccc(C#Cc2ccc3nc4ccc(C#Cc5ccc(CCC)cc5)cn4c(=O)c3c2)cc1
- emission maximum (in ClCCl): 480 nm

Compound: CN(C)c1ccc(-c2ccc(-c3cc(N4CCCCC4)c(C#N)c4c3-c3ccccc3CC4)s2)cc1
- emission maximum (in C1CCCCC1): 491 nm
- emission maximum (in C1CCOC1): 537 nm
- emission maximum (in CN(C)C=O): 590 nm
- emission maximum (in CS(C)=O): 570 nm
- emission maximum (in Cc1ccccc1): 515 nm
- emission maximum (in ClC(Cl)Cl): 540 nm

Compound: COCCOCCOCCOCC(COCCOCCOCCOC)Oc1cc(/C=C/c2ccc(/C=C(\C#N)c3ccccc3)cc2)c(OC(COCCOCCOCCOC)COCCOCCOCCOC)cc1/C=C/c1ccc(/C=C(\C#N)c2ccccc2)cc1
- emission maximum (in ClCCl): 539 nm

Compound: COc1ccc(C2=C(c3ccc(OC)cc3)c3cccc4c3c(cc3nc5ccccc5nc34)O2)cc1
- emission maximum (in ClCCl): 572 nm

Compound: Cc1ccc2nc3cc4ccccc4cc3c(-c3ccccc3)c2c1
- emission maximum (in ClCCl): 521 nm

Compound: CCOC(=O)c1c(-c2cc3ccccc3oc2=O)nn(-c2ccccc2)c1C(=O)OCC
- emission maximum (in ClCCl): 401 nm

Compound: COc1nc(Nc2ccc3c4c(cccc24)C(=O)c2ccccc2-3)nc(OC)n1
- emission maximum (in CC#N): 554.02 nm
- emission maximum (in CC(C)=O): 533.9 nm
- emission maximum (in CC(C)O): 576.04 nm
- emission maximum (in CCCCOCCCC): 516 nm
- emission maximum (in CCOC(C)=O): 523.01 nm
- emission maximum (in CCOCC): 520.02 nm
- emission maximum (in CO): 586.85 nm
- emission maximum (in Cc1ccccc1): 521.92 nm
- emission maximum (in Clc1ccccc1): 526.87 nm
- emission maximum (in N#Cc1ccccc1): 535.91 nm
- emission maximum (in O=C1CCCCC1): 531.91 nm

Compound: N#Cc1cc2ccc(O)cc2oc1=N
- emission maximum (in C1CCOC1): 412 nm
- emission maximum (in CC#N): 408 nm
- emission maximum (in CCOC(C)=O): 414 nm
- emission maximum (in CS(C)=O): 409 nm
- emission maximum (in ClC(Cl)Cl): 415 nm

Compound: COc1ccc(C#Cc2nc3ccccc3nc2-c2csc(OC)c2)cc1
- emission maximum (in ClCCl): 508 nm

Compound: O=C(O)c1ccc(-c2nc(-c3ccccc3)c(-c3ccccc3)[nH]2)cc1
- emission maximum (in CO): 414.5 nm

Compound: CSc1ccc(-c2nc3sc4ccccc4c3s2)cc1
- emission maximum (in CS(C)=O): 431 nm

Compound: COc1ccc(C2=Cc3ccc4ccccc4[n+]3[B-](F)(F)O2)cc1
- emission maximum (in ClC(Cl)Cl): 457 nm

Compound: C#Cn1c(-c2cc(-c3nc4ccccc4n3C#C)cc(-c3nc4ccccc4n3C#C)c2)nc2ccccc21
- emission maximum (in C1CCOC1): 386.5 nm

Compound: O=C1CCCc2c1[nH]c1cc3c(cc21)OCO3
- emission maximum (in C1CCOC1): 403.84 nm
- emission maximum (in CC#N): 399.42 nm
- emission maximum (in CCCCCCO): 430.73 nm
- emission maximum (in CCO): 437.63 nm
- emission maximum (in CCOC(C)=O): 388.9 nm
- emission maximum (in CS(C)=O): 403.54 nm
- emission maximum (in O): 463.6 nm
- emission maximum (in c1ccccc1): 384.12 nm

Compound: COc1ccc(-c2nc3c(c4c2-c2ccc(C#N)cc2CC4)-c2ccc(C#N)cc2CC3)cc1
- emission maximum (in C1CCOC1): 426 nm
- emission maximum (in CC#N): 430 nm
- emission maximum (in CCCCCC): 420 nm
- emission maximum (in CCOC(C)=O): 423 nm
- emission maximum (in CO): 426 nm
- emission maximum (in CS(C)=O): 435 nm
- emission maximum (in Cc1ccccc1): 422 nm
- emission maximum (in ClCCl): 425 nm

Compound: Cc1cc(O)c(C(=O)/C=C/c2ccccc2O)c(=O)o1
- emission maximum (in CC#N): 510 nm
- emission maximum (in ClCCl): 477 nm

Compound: COc1ccc(C#Cc2c3ccccc3c(C#Cc3ccc(OC)cc3)c3ccccc23)cc1
- emission maximum (in ClCCl): 492 nm

Compound: Nc1ccc2c(c1)C(=O)c1ccc(N)cc1C2=O
- emission maximum (in CC#N): 594 nm
- emission maximum (in CC(C)O): 616 nm
- emission maximum (in CCO): 616 nm
- emission maximum (in CCOC(C)=O): 547.6 nm
- emission maximum (in CO): 616 nm

Compound: c1ccc2cc3c(cc2c1)-c1cccc2cc4ccccc4c-3c12
- emission maximum (in CCCCCCC): 471 nm

Compound: CCc1nc2c(nc1CC)C(c1ccccc1)=[N+]1C2=Nc2c3nc(CC)c(CC)nc3c(-c3ccccc3)n2[B-]1(F)F
- emission maximum (in C1CCOC1): 721 nm

Compound: c1ccc2c(-c3ccc(-c4nnc(-c5ccc(-c6nnc(-c7ccc(-c8cccc9ccccc89)s7)o6)cc5)o4)s3)cccc2c1
- emission maximum (in C1COCCO1): 434 nm
- emission maximum (in CC#N): 458 nm
- emission maximum (in CC(=O)N(C)C): 462 nm
- emission maximum (in CCCCCCCCCCO): 440 nm
- emission maximum (in CCCCCCCCO): 442 nm
- emission maximum (in CCCCCCO): 445 nm
- emission maximum (in CCCCO): 451 nm
- emission maximum (in CCO): 459 nm
- emission maximum (in CS(C)=O): 468 nm
- emission maximum (in Cc1ccccc1): 434 nm
- emission maximum (in ClC(Cl)Cl): 410 nm

Compound: C1=Cc2ccccc2C(=Cc2ccc(C=C3c4ccccc4C=Cc4ccccc43)cc2)c2ccccc21
- emission maximum (in C1CCOC1): 405 nm

Compound: F[B-]1(F)n2c(/C=C/c3ccc(C(=C(c4ccccc4)c4ccccc4)c4ccccc4)cc3)ccc2C(c2ccccc2)=C2C=CC(/C=C/c3ccc(C(=C(c4ccccc4)c4ccccc4)c4ccccc4)cc3)=[N+]21
- emission maximum (in C1CCOC1): 690 nm

Compound: CC(C)(C)c1ccc(-c2c(-c3ccc(N(c4ccccc4)c4ccccc4)cc3)c(C#N)c(-c3ccc(N(c4ccccc4)c4ccccc4)cc3)c(-c3ccc(C(C)(C)C)cc3)c2-c2ccc(C(C)(C)C)cc2)cc1
- emission maximum (in C1CCOC1): 443 nm

Compound: CN(C)c1cccc2c1C(=O)c1ccccc1C2=O
- emission maximum (in C1CCCCC1): 566 nm
- emission maximum (in CC1CCCCC1): 566.5 nm
- emission maximum (in CC#N): 593 nm
- emission maximum (in CCC(C)CC): 566 nm
- emission maximum (in CCCCCC): 566.2 nm
- emission maximum (in CCOC(C)=O): 585 nm

Compound: CCc1ccc(-n2c3ccccc3c3cc4c(cc32)c2ccccc2n4-c2ccc(CC)cc2)cc1
- emission maximum (in ClC(Cl)Cl): 415 nm

Compound: C(S/C=C/c1ccc(/C=C/SC=C2CCCCCC2)cc1)=C1CCCCCC1
- emission maximum (in ClCCl): 422 nm

Compound: C[n+]1ccc(/C=C/c2ccc(N(c3ccccc3)c3ccc(/C=C/c4cc[n+](C)cc4)cc3)cc2)cc1
- emission maximum (in ClCCl): 502 nm
- emission maximum (in O): 656 nm
- emission maximum (in OCC(O)CO): 649 nm

Compound: CCCCCCCCOc1ccc2c3cccc4c(OCCCCCCCC)ccc(c5cccc1c52)c43
- emission maximum (in C1CCOC1): 468.03 nm
- emission maximum (in Cc1ccccc1): 467.99 nm
- emission maximum (in ClC(Cl)(Cl)Cl): 471.01 nm
- emission maximum (in ClC(Cl)Cl): 471.01 nm
- emission maximum (in ClCCl): 469.99 nm
- emission maximum (in c1ccncc1): 474.01 nm

Compound: CCN(CC)c1ccc2cc(-c3cn4cc(OC)ccc4n3)c(=O)oc2c1
- emission maximum (in ClC(Cl)Cl): 478 nm

Compound: CCC1(CC)c2cc(-c3ccc(C(C)(C)C)cc3)ccc2-c2ccc(-c3ccc4c(c3)C(CC)(CC)c3cc(-c5ccc6c(c5)C(CC)(CC)c5cc(-c7ccc(C(C)(C)C)cc7)ccc5-6)ccc3-4)cc21
- emission maximum (in CO): 402.3 nm

Compound: Cc1ccc2c(c1)C(=O)c1ccncc1-2
- emission maximum (in CC#N): 536.75 nm
- emission maximum (in CCCCCC): 487.83 nm
